From US20210127673A1, “HERBICIDES” (SYNGENTA PARTICIPATIONS AG, priority 2016, published 2021)

Key:
Assay type in all cases: in vivo
[1] = system: Echinochloa crus-galli (ECHCG); assay: Pre-emergence herbicidal activity, Echinochloa crus-galli; parameters: key: 5=total damage to plant; 0=no damage to plant; conditions: 1000 g/ha, evaluated after 13 days, Test 1b
Method in brief: (§1)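 Damage rated on a 0 (none) to 5 (total) scale 13 days after treatment. Spray was an aqueous solution from an acetone/water (50:50) formulation with 0.5% Tween 20, applied pre-emergence one day post-sowing; plants kept in a glasshouse at 24/16 °C, 14 h light, 65% humidity.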

Lolium perenne (LOLPE) [2] = assay: Post-emergence herbicidal activity, Lolium perenne; conditions: 1000 g/ha, evaluated after 13 days, Test 2b
Method in brief: (§2)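 Post-em, 8 d plants, pots; acetone:water 1:1 + 0.5% Tween 20 spray; 24/16 °C, 14 h photoperiod, 65% RH; 13 d readout, 0–5 phytotoxicity scale.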

Zea Mays (ZEAMX) [3] = assay: Pre-emergence herbicidal activity, Zea Mays; parameters: key: 5=total damage to plant; 0=no damage to plant; conditions: 1000 g/ha, evaluated after 13 days, Test 1b
Procedure: (§3) Seeds of a variety of test species were sown in standard soil in pots: Triticum aestivium (TRZAW), Avena fatua (AVEFA), Alopecurus myosuroides (ALOMY), Echinochloa crus-galli (ECHCG), Lolium perenne (LOLPE), Zea Mays (ZEAMX), Abutilon theophrasti (ABUTH), Amaranthus retroflexus (AMARE) and Setaria faberi (SETFA). After cultivation for one day (pre-emergence) under controlled conditions in a glasshouse (at 24/16° C., day/night; 14 hours light; 65% humidity), the plants were sprayed with an aqueous spray solution derived from the formulation of the technical active ingredient in acetone/water (50:50) solution containing 0.5% Tween 20 (polyoxyethelyene sorbitan monolaurate, CAS RN 9005-64-5). The test plants were then grown in a glasshouse under controlled conditions (at 24/16°, day/night; 14 hours light; 65% humidity) and watered twice daily. After 13 days, the test was evaluated (5=total damage to plant; 0=no damage to plant).

Setaria faberi (SETFA) [4] = assay: Pre-emergence herbicidal activity, Setaria faberi; parameters: key: 5=total damage to plant; 0=no damage to plant; conditions: 1000 g/ha, evaluated after 13 days, Test 1b
Method in brief: as §1

[5] = system: Abutilon theophrasti (ABUTH); assay: Pre-emergence herbicidal activity, Abutilon theophrasti; parameters: key: 5=total damage to plant; 0=no damage to plant; conditions: 1000 g/ha, evaluated after 13 days, Test 1b
Procedure: as §3

[6] = system: Echinochloa crus-galli (ECHCG); assay: Post-emergence herbicidal activity, Echinochloa crus-galli; conditions: 1000 g/ha, evaluated after 13 days, Test 2b
Method in brief: as §2

[7] = system: Amaranthus retroflexus (AMARE); assay: Post-emergence herbicidal activity, Amaranthus retroflexus; parameters: key: 5=total damage to plant; 0=no damage to plant; conditions: 1000 g/ha, evaluated after 13 days, Test 2b
Procedure: (§4) Seeds of a variety of test species were sown in standard soil in pots: Triticum aestivium (TRZAW), Avena fatua (AVEFA), Alopecurus myosuroides (ALOMY), Echinochloa crus-galli (ECHCG), Lolium perenne (LOLPE), Zea Mays (ZEAMX), Abutilon theophrasti (ABUTH), Amaranthus retroflexus (AMARE) and Setaria faberi (SETFA). After 8 days cultivation (post-emergence) under controlled conditions in a glasshouse (at 24/16° C., day/night; 14 hours light; 65% humidity), the plants were sprayed with an aqueous spray solution derived from the formulation of the technical active ingredient in acetone/water (50:50) solution containing 0.5% Tween 20 (polyoxyethelyene sorbitan monolaurate, CAS RN 9005-64-5). The test plants were then grown in a glasshouse under controlled conditions (at 24/16° C., day/night; 14 hours light; 65% humidity) and watered twice daily. After 13 days, the test was evaluated (5=total damage to plant; 0=no damage to plant).

Lolium perenne (LOLPE) [8] = assay: Pre-emergence herbicidal activity, Lolium perenne; parameters: key: 5=total damage to plant; 0=no damage to plant; conditions: 1000 g/ha, evaluated after 13 days, Test 1b
Method in brief: as §1

[9] = system: Amaranthus retroflexus (AMARE); assay: Pre-emergence herbicidal activity, Amaranthus retroflexus; parameters: key: 5=total damage to plant; 0=no damage to plant; conditions: 1000 g/ha, evaluated after 13 days, Test 1b
Procedure: as §3

[10] = system: Abutilon theophrasti (ABUTH); assay: Post-emergence herbicidal activity, Abutilon theophrasti; parameters: key: 5=total damage to plant; 0=no damage to plant; conditions: 1000 g/ha, evaluated after 13 days, Test 2b
Procedure: as §4

Zea Mays (ZEAMX) [11] = assay: Post-emergence herbicidal activity, Zea Mays; parameters: key: 5=total damage to plant; 0=no damage to plant; conditions: 1000 g/ha, evaluated after 13 days, Test 2b
Procedure: as §4

Setaria faberi (SETFA) [12] = assay: Post-emergence herbicidal activity, Setaria faberi; parameters: key: 5=total damage to plant; 0=no damage to plant; conditions: 1000 g/ha, evaluated after 13 days, Test 2b
Method in brief: as §2

Compound	ECHCG damage score (0-5) [1]	LOLPE damage score (0-5) (Lolium perenne (LOLPE) [2])	ZEAMX damage score (0-5) (Zea Mays (ZEAMX) [3])	SETFA damage score (0-5) (Setaria faberi (SETFA) [4])	ABUTH damage score (0-5) [5]	ECHCG damage score (0-5) [6]	AMARE damage score (0-5) [7]	LOLPE damage score (0-5) (Lolium perenne (LOLPE) [8])	AMARE damage score (0-5) [9]	ABUTH damage score (0-5) [10]	ZEAMX damage score (0-5) (Zea Mays (ZEAMX) [11])	SETFA damage score (0-5) (Setaria faberi (SETFA) [12])
Cc1nc(-c2cncnc2)ccc1NC(=O)OC(C)(C)C [Compound B28]	2	4	3	2	0	4	0	1	0	0	5	4
COc1cncc(-c2ccc(NC(=O)OC(C)(C)C)c(C)n2)c1 [Compound B23]	1	2	1	4	1	2	1	1	1	1	5	3
CCN(C(=O)OC(C)(C)C)c1ccc(-c2cncc(F)c2)nc1C(F)(F)F [Compound B14]	0	1	0	0	4	2	0	0	0	0	4	4
Cc1nc(-c2cncc(C#N)c2)ccc1NC(=O)OC(C)(C)C [Compound B20]	5	3	5	4	0	4	1	1	1	0	4	5
Cc1nc(-c2cncc(C(F)(F)F)c2)ccc1NC(=O)OC(C)(C)C [Compound B24]	0	1	1	1	1	2	2	0	1	1	2	2
Cc1nc(-c2cncc(OC(F)F)c2)ccc1NC(=O)OC(C)(C)C [Compound B13]	2	2	2	3	0	3	1	1	0	0	5	5
CCOC(=O)Nc1ccc(-c2cncc(F)c2)nc1C(F)(F)F [Compound B15, ethyl N-[6-(5-fluoro-3-pyridyl)-2-(trifluoromethyl)-3-pyridyl]carbamate]	1	2	4	4	0	3	1	0	0	0	5	4
CN(C(=O)OC(C)(C)C)c1ccc(-c2cncnc2)nc1C(F)(F)F [Compound B31]	3	2	4	5	0	4	1	1	1	1	5	5
COc1cncc(-c2ccc(N(C)C(=O)OC(C)(C)C)c(C(F)(F)F)n2)c1 [Compound B21]	0	1	0	1	1	2	0	0	1	0	2	3
Cc1cncc(-c2ccc(N(C)C(=O)OC(C)(C)C)c(C(F)(F)F)n2)c1 [Compound B18]	0	1	0	1	1	2	0	0	1	0	2	3
